Assay [1] concerns BT-549. To be noted: 72 h. The method, boiled down:
(§1)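 Seeding of breast cancer cell lines (20 µl suspension) was done into 384-well plates pre-loaded with compound at 5 concentrations, 10-fold apart, covering a compound-specific 10,000-fold range. The plates were incubated for 72 h, read for CellTox Green fluorescence (485/520 nm), and then read for CellTiter-Glo luminescence after 10 min at room temperature. Every plate was normalised to 0.1 % DMSO and a positive kill control. Curve fitting gave the EC50, censored at the top concentration.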

Assay [2] deals with MDA-MB-436. The settings on record: 72 h. The method, boiled down:
as §1

The test system of assay [3] is CAL-148. The assay can be described thus: normalised viability (% of control), CellTiter-Blue; higher = more viable cells (about 100 = DMSO control). The settings on record: 3000 nM; incubation time: 72 h. How it is done: (§2)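 DSRT, CellTiter-Blue viability, 72 h incubation. Signal is normalised to DMSO and benzethonium chloride controls. Value is the normalised response at dose 8.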

In assay [4] the test system is CAL-51. The assay is described as above. The settings on record: 3000 nM; incubation time: 72 h. How it is done: as §2
Assay [5] relates to CAL-85-1. The description is as above. To be noted: 3000 nM; incubation time: 72 h. How it is done:
as §2

Assay [6] has as its system DU-4475. The description is as above. The settings on record: 3000 nM; incubation time: 72 h. How it is done: as §2
Assay [7] concerns HDQ-P1. The description is as above. To be noted: 3000 nM; incubation time: 72 h. How it is done: as §2
Assay [8] deals with MDA-MB-453. The assay is described as above. The settings on record: 3000 nM; incubation time: 72 h. How it is done:
as §2

The next assay deals with BT-474. In words: normalised viability (% of control), CellTiter-Blue; higher = more viable cells (about 100 = DMSO control). The settings on record: 100 nM; incubation time: 72 h. The method, boiled down:
(§3)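 Plates were quality-checked by Z'-factor and normalised to vehicle (100) and a positive kill control (0). The underlying assay incubated breast cancer cell lines for 72 h on 384-well plates with compound, then added 2.5 µl CellTiter-Blue for 2 h at 37 °C and read at 560/590 nm. The value is normalised viability at a single listed concentration of the series.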

The subject of assay [9] is BT-549. The assay is described as above. To be noted: 100 nM; incubation time: 72 h. In a few lines: as §3
Assay [10] has as its system CAL-51. The assay is described as above. To be noted: 10 nM; incubation time: 72 h. The method, boiled down:
as §3

The test system of assay [11] is CAL-85-1. Described as above. The settings on record: 10 nM; incubation time: 72 h. In a few lines:
as §3

In assay [12] the test system is DU-4475. Described as above. The settings on record: 10 nM; incubation time: 72 h. In a few lines:
as §3

The test system of assay [13] is HDQ-P1. Described as above. To be noted: 10 nM; incubation time: 72 h. The method, boiled down:
as §3

In another assay the test system is Hs578T. Described as above. The settings on record: 100 nM; incubation time: 72 h. The method, boiled down:
as §3

Assay [14] relates to MDA-MB-436. Described as above. To be noted: 100 nM; incubation time: 72 h. The method, boiled down: as §3
Another assay has as its system MFM-223. Described as above. To be noted: 100 nM; incubation time: 72 h. The method, boiled down: as §3
A further assay has as its system SK-BR-3. The assay is described as above. To be noted: 100 nM; incubation time: 72 h. The method, boiled down:
as §3

The test system of assay [15] is CAL-148. In words: normalised viability (% of control), CellTiter-Blue; higher = more viable cells (about 100 = DMSO control). To be noted: 300 nM; incubation time: 72 h. How it is done:
(§4)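 DSRT, CellTiter-Blue viability, 72 h incubation. Signal is normalised to DMSO and benzethonium chloride controls. Value is the normalised response at dose 6.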

Assay [16] deals with CAL-51. The assay is described as above. The settings on record: 300 nM; incubation time: 72 h. How it is done: as §4
Assay [17] deals with CAL-85-1. Described as above. The settings on record: 300 nM; incubation time: 72 h. How it is done:
as §4

Assay [18] deals with DU-4475. The assay is described as above. To be noted: 300 nM; incubation time: 72 h. The protocol:
as §4

Assay [19] relates to HDQ-P1. Described as above. The settings on record: 300 nM; incubation time: 72 h. The protocol:
as §4

In assay [20] the test system is MDA-MB-453. The description is as above. The settings on record: 300 nM; incubation time: 72 h. The protocol: as §4
The test system of assay [21] is CAL-148. Described as above. The settings on record: 10000 nM; incubation time: 72 h. How it is done: (§5)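 DSRT, CellTiter-Blue viability, 72 h incubation. Signal is normalised to DMSO and benzethonium chloride controls. Value is the normalised response at dose 9.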
Assay [22] deals with CAL-51. The description is as above. To be noted: 10000 nM; incubation time: 72 h. How it is done:
as §5

The subject of assay [23] is CAL-85-1. The description is as above. The settings on record: 10000 nM; incubation time: 72 h. The protocol:
as §5

Assay [24] has as its system DU-4475. The description is as above. To be noted: 10000 nM; incubation time: 72 h. How it is done:
as §5

Assay [25] relates to HDQ-P1. The description is as above. The settings on record: 10000 nM; incubation time: 72 h. How it is done: as §5
Assay [26] deals with MDA-MB-453. The assay is described as above. To be noted: 10000 nM; incubation time: 72 h. How it is done: as §5

Experimental findings from the supplement of paper PMC4862054 are described below.

For the compound `Nc1nc(F)nc2c1ncn2[C@@H]1O[C@H](CO)[C@@H](O)[C@@H]1O` [Fludarabine], the entries for the “EC50, CellTiter-Glo” value in the assay with BT-549 [1] and in the assay on MDA-MB-436 [2] were 5.92 µM and 7.39 µM, respectively. Moreover, the normalised viability amounted to 84.5% in the assay on CAL-148 [3]; 104% in the assay with CAL-51 [4]; 96.7% in the assay with CAL-85-1 [5]; 104% in the assay on DU-4475 [6]; 108% in the assay with HDQ-P1 [7]; 111% in the assay with MDA-MB-453 [8]. In addition, the normalised viability with BT-474 worked out at 107%; with BT-549 [9] it was 107%; in the assay with CAL-51 [10], 101%; with CAL-85-1 [11], 101%; in the assay with DU-4475 [12], 115%; with HDQ-P1 [13], 103%. Further, the normalised viability in the assay on Hs578T amounted to 95.4%; in the assay on MDA-MB-436 [14], 95.2%; in the assay with MFM-223 it was 92.8%; in the assay with SK-BR-3, 99.9%; in the assay with CAL-148 [15], 72.2%; in the assay with CAL-51 [16], 103%. Further, the normalised viability was found to be 90.4% with CAL-85-1 [17]; 100% with DU-4475 [18]; 75.3% in the assay with HDQ-P1 [19]; 100% in the assay on MDA-MB-453 [20]; 64.9% in the assay on CAL-148 [21]; 101% with CAL-51 [22]. The normalised viability was 78.1% with CAL-85-1 [23], 99.3% in the assay with DU-4475 [24], 80.1% with HDQ-P1 [25] and 93.6% with MDA-MB-453 [26].
In the case of `CC[C@H](Nc1ncnc2[nH]cnc12)c1nc2cccc(F)c2c(=O)n1-c1ccccc1` [GS-1101], the “EC50, CellTiter-Glo” value amounted to 4.67 µM in the assay on BT-549 [1] and 6.9 µM in the assay with MDA-MB-436 [2].
In the case of `C[C@H]1C[C@@H]2[C@H]([C@@H](O)C[C@@]3(C)[C@H]2CC[C@]3(O)C(=O)CO)[C@@]2(C)C=CC(=O)C=C12` [Methylprednisolone], the normalised viability with CAL-148 [3] worked out at 96.8%; with CAL-51 [4] it was 105%; with CAL-85-1 [5], 101%; in the assay with DU-4475 [6], 97.9%; in the assay with HDQ-P1 [7], 105%; in the assay with MDA-MB-453 [8] it was 74.1%. The normalised viability with BT-474 turned out to be 119%; in the assay with BT-549 [9], 111%; in the assay on CAL-51 [10] it was 101%; in the assay on CAL-85-1 [11] it was 114%; with DU-4475 [12], 101%; with HDQ-P1 [13] it was 116%. The normalised viability came out at 85.3% in the assay with Hs578T; 94.6% in the assay with MDA-MB-436 [14]; 81.1% with MFM-223; 82.5% with SK-BR-3; 104% with CAL-148 [15]; 105% in the assay with CAL-51 [16]. In addition, the normalised viability came to 112% in the assay on CAL-85-1 [17]; 100% in the assay with DU-4475 [18]; 74.6% with HDQ-P1 [19]; 83.3% in the assay with MDA-MB-453 [20]; 106% with CAL-148 [21]; 92.5% with CAL-51 [22]. For the same compound, the normalised viability with CAL-85-1 [23] was found to be 91%; in the assay on DU-4475 [24], 87.4%; with HDQ-P1 [25], 123%; with MDA-MB-453 [26], 75.7%.
For `O=C(O)C(=O)O.[NH-][C@@H]1CCCC[C@H]1[NH-].[Pt+2]` [Oxaliplatin], the normalised viability with CAL-148 [3] worked out at 82.8%; with CAL-51 [4], 118%; in the assay with CAL-85-1 [5], 84.5%; in the assay on DU-4475 [6], 108%; with HDQ-P1 [7], 102%; in the assay on MDA-MB-453 [8] it was 100%. Moreover, the normalised viability in the assay with BT-474 stood at 127%; with BT-549 [9] it was 89.1%; with CAL-51 [10] it was 103%; in the assay on CAL-85-1 [11], 92%; in the assay with DU-4475 [12], 95.9%; in the assay with HDQ-P1 [13], 119%. For the same compound, the normalised viability was 95.7% in the assay on Hs578T; 96.1% in the assay on MDA-MB-436 [14]; 91.8% in the assay on MFM-223; 94% in the assay with SK-BR-3; 121% with CAL-148 [15]; 95.5% with CAL-51 [16]. The normalised viability in the assay with CAL-85-1 [17] stood at 96.9%; with DU-4475 [18] it was 113%; with HDQ-P1 [19], 78.4%; with MDA-MB-453 [20], 98.8%; with CAL-148 [21] it was 18.1%; in the assay on CAL-51 [22] it was 39%. Besides, the normalised viability in the assay with CAL-85-1 [23] turned out to be 66.5%; in the assay on DU-4475 [24], 41.8%; with HDQ-P1 [25], 60.2%; in the assay with MDA-MB-453 [26], 28.5%.
